Laboratory results from paper PMC6465675, “Design, Synthesis, Antiviral Evaluation, and SAR Studies of New 1-(Phenylsulfonyl)-1H-Pyrazol−4-yl-Methylaniline Derivatives” (Frontiers in Chemistry, 2019).

Columns and labels:
in vitro [1] = conditions: Bos taurus (cattle)
in vitro [2] = conditions: Cercopithecus aethiops (monkey), Vero76 CC50
in vitro [3] = conditions: human
in vitro [4] = conditions: Mesocricetus auratus (hamster)
RSV [5] = system: RSV
RSV [6] = test: microbe, parasite or virus in culture; conditions: human respiratory syncytial virus, Vero 76, read-out: RSV EC50
YFV [7] = test: microbe, parasite or virus in culture; conditions: Yellow fever virus, BHK, read-out: YFV EC50
YFV [8] = system: YFV

Row | SMILES | CC50 (in vitro [1]) [µM] | CC50 (in vitro [2]) [µM] | CC50 (in vitro [3]) [µM] | CC50 (in vitro [4]) [µM] | melting point [°C] | SI CC50/EC50 (RSV) (RSV [5]) | EC50 (RSV [6]) [µM] | EC50 (YFV [7]) [µM] | SI CC50/EC50 (YFV) (YFV [8])
1 | COc1ccc(S(=O)(=O)n2cc(CNc3ccccc3)c(-c3ccc(C)cc3)n2)cc1 [8i, N-[(1-((4-Methoxyphenyl)sulfonyl)-3-(p-tolyl)-1H-pyrazol-4-yl)methyl]aniline] | > 100 | > 100 | > 100 | > 100 | 154 to 155 | – | – | – | –
2 | COc1ccc(S(=O)(=O)n2cc(CNc3ccc(C)cc3)c(-c3ccc(C)cc3)n2)cc1 [8l, 4-Methyl-N-[(1-((4-methoxyphenyl)sulfonyl)-3-(p-tolyl)-1H-pyrazol-4-yl)methyl]aniline] | > 100 | > 100 | > 100 | > 100 | 145 to 146 | – | – | – | –
3 | O=S(=O)(c1ccccc1)n1cc(CNc2ccc(Br)cc2)c(-c2ccc(Cl)cc2)n1 [7k, 4-Bromo-N-[(3-(4-chlorophenyl)-1-(phenylsulfonyl)-1H-pyrazol-4-yl)methyl]aniline] | > 100 | > 100 | > 100 | > 100 | 142 to 143 | >7.2 | 13.8 ± 0.4 | 5.6 ± 0.6 | >17.9
4 | COc1ccc(S(=O)(=O)n2cc(CNc3ccc(C)cc3)c(-c3ccc(Br)cc3)n2)cc1 [8d, 4-Methyl-N-[(3-(4-bromophenyl)-1-((4-methoxphenyl)sulfonyl)-1H-pyrazol-4-yl)methyl]aniline] | > 100 | 100 | > 100 | > 100 | 164 to 166 | – | – | 18.3 ± 1.1 | >5.5
5 | COc1ccc(S(=O)(=O)n2cc(CNc3ccc(Cl)cc3)c(-c3ccc(C)cc3)n2)cc1 [8j] | > 100 | > 100 | > 100 | > 100 | 157 to 158 | – | – | – | –
6 | Brc1ccc(NCc2cn(-c3ccccc3)nc2-c2ccccc2)cc1 [1c] | – | – | – | > 100 | – | – | – | – | –
7 | Cc1ccc(-c2nn(S(=O)(=O)c3ccccc3)cc2CNc2ccc(Br)cc2)cc1 [7o, 4-Bromo-N-[(1-(phenylsulfonyl)-3-(p-tolyl)-1H-pyrazol-4-yl)methyl]aniline] | > 100 | > 100 | > 100 | > 100 | 110 | >7.4 | 13.5 ± 0.5 | 3.7 ± 1.3 | >27.0
8 | Cc1ccc(NCc2cn(S(=O)(=O)c3ccccc3)nc2-c2ccccc2)cc1 [7d, 4-Methyl-N-[(3-phenyl-1-(phenylsulfonyl)-1H-pyrazol-4-yl)methyl]aniline] | > 100 | ≥ 100 | > 100 | > 100 | 199 | – | – | – | –
9 | COc1ccc(S(=O)(=O)n2cc(CNc3ccccc3)c(-c3ccc(Cl)cc3)n2)cc1 [8e] | > 100 | > 100 | > 100 | > 100 | 143 to 145 | – | – | – | –
10 | COc1ccc(S(=O)(=O)n2cc(CNc3ccc(C)cc3)c(-c3ccc(Cl)cc3)n2)cc1 [8h, 4-Methyl-N-[(3-(4-chlorophenyl)-1-((4-methoxyphenyl)sulfonyl)-1H-pyrazol-4-yl)methyl]aniline] | > 100 | > 100 | > 100 | > 100 | 169 to 171 | – | – | – | –
11 | O=S(=O)(c1ccccc1)n1cc(CNc2ccccc2)c(-c2ccccc2)n1 [7a, N-[(3-Phenyl-1-(phenysulfonyl)-1H-pyrazol-4-yl)methyl]aniline] | > 100 | > 100 | > 100 | > 100 | 139 | – | – | – | –
12 | O=C1Nc2ccc(Cl)cc2[C@@](C#CC2CC2)(C(F)(F)F)O1 [EFV, Efavirenz, reference compound] | – | – | 40 ± 2.5 | – | – | – | – | – | –
